Assay results: patent US4740504A, “Antihyperlipidemic amine boranes” (United States Borax & Chemical Corp., priority 1987, dated 1988)
Where two headings read alike, the source gives them in different places.

Key:
male CF1 mice = assay: Hypolipidemic activity in CF1 mice, intraperitoneal dosing (serum cholesterol and triglyceride); type: in vivo; details: Mus musculus, ip, male CF1 mice; for response vs control in vivo at 20 mg/kg / response vs control in vivo at 5 mg/kg: Table I; for response vs control in vivo at 20 mg/kg: 20 mg./kg./day i.p.; for response vs control in vivo at 8 mg/kg: Table II, 8 mg./kg./day i.p.; for response vs control in vivo at 5 mg/kg: 5 mg./kg./day i.p.
Description: For determining hypolipidemic activity, the compounds were suspended in an aqueous 1% carboxymethylcellulose solution and tested at 5 or 20 mg./kg./day administered intraperitoneally to male CF1 mice (~25 g.). On days 9 and 16 blood was collected by tail vein bleeding and the serum separated by centrifugation for three minutes. Serum cholesterol levels were determined by a modified Liebermann-Burchard reaction. Serum triglyceride levels were also determined at 16 days using a Fisher-Hycel Triglyceride Test Kit.
The test was repeated at a dosage of 8 mg./kg./day.
N-n-Octadecyl-N,N-dimethylamine borane was suspended in an aqueous 1% carboxymethylcellulose solution, homogenized, and administered to CF1 male mice (~25 g.) intraperitoneally for 16 days or Sprague Dawley male rats (~350 g.) orally by an intubation needle for 14 days. On days 9 and 14 or 16, blood was obtained by tail vein bleeding and the serum separated by centrifugation for 3 minutes. The serum cholesterol levels were determined by a modification of the Liebermann-Burchard reaction. Serum was also collected on day 14 or 16 and the triglyceride content was determined by a Fisher-Hycel Triglyceride Test Kit.

[1] = dose of 5-20 mg/kg/day; Hall et al., J. Pharm. Sci. 70, 339-341 (1981); cited from earlier work
mice = details: cited from earlier work
[2] = target: T1, ATP dependent citrate lyase (Mus musculus, UniProt Q91V92); details: in vivo; Hall et al. 1984; cited from earlier work
T1 construct: from tissue
T1 sequence (Q91V92 1-1091): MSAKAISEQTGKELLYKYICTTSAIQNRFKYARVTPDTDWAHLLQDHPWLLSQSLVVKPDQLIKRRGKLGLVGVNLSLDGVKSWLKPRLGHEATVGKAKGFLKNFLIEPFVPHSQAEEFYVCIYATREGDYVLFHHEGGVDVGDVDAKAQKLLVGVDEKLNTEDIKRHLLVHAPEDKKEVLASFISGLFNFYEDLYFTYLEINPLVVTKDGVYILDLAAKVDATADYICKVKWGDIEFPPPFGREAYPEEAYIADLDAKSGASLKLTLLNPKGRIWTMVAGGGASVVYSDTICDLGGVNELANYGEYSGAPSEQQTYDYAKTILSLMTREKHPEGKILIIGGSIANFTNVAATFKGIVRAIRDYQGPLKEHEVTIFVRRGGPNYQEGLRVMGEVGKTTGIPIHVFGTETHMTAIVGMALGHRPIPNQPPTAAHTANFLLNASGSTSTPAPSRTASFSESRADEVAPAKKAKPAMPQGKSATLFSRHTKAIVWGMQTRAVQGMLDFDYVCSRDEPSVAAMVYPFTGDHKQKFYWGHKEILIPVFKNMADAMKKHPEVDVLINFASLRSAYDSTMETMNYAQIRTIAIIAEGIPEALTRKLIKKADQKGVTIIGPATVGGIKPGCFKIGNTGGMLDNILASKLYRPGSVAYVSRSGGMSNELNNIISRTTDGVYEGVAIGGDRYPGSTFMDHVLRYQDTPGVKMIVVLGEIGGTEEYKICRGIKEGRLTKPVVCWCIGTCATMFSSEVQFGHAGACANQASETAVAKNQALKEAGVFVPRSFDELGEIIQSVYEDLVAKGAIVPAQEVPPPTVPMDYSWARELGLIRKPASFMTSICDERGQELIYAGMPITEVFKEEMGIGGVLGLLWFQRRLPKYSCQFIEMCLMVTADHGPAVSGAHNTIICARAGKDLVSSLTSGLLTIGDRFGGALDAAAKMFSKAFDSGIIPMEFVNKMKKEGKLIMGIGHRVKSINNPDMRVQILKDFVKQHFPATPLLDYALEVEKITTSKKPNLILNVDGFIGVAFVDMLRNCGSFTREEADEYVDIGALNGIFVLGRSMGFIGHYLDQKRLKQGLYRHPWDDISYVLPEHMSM

acetyl CoA synthetase = target: T2, acetyl CoA synthetase (Mus musculus, UniProt Q9QXG4); details: in vivo; Hall et al. 1984; cited from earlier work
T2 construct: from tissue

[3] = system: phosphatidate phosphohydrolase; details: in vivo; Hall et al. 1984; cited from earlier work
[4] = 216 h, day 9, read-out: Serum Cholesterol Day 9
[5] = 384 h, day 16, read-out: Serum Cholesterol Day 16
[6] = 384 h, day 16, read-out: Serum Triglyceride Day 16

T2 sequence (Q9QXG4 whole entry): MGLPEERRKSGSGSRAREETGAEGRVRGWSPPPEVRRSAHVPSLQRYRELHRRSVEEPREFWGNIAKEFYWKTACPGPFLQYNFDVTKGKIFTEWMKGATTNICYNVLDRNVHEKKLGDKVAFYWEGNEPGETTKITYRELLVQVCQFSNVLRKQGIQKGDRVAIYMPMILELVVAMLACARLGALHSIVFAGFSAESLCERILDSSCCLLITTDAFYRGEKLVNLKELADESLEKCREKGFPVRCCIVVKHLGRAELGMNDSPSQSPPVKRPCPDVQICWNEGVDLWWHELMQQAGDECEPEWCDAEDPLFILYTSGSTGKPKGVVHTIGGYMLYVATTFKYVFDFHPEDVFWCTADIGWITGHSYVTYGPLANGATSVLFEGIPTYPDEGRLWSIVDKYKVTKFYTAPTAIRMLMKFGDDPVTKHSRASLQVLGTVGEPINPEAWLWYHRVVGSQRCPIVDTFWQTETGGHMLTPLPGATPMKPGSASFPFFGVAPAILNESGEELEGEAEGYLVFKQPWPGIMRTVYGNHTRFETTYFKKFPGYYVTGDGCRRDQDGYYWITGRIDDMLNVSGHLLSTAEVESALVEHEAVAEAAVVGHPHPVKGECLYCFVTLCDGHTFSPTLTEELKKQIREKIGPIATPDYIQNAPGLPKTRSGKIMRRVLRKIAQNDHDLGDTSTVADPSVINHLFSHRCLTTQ

Molecule | response vs control in vivo at 20 mg/kg (male CF1 mice; [4]) [%] | response vs control in vivo at 8 mg/kg (male CF1 mice; [4]) [%] | response vs control in vivo at 20 mg/kg (male CF1 mice; [5]) [%] | response vs control in vivo at 20 mg/kg (male CF1 mice; [6]) [%] | response vs control in vivo at 8 mg/kg (male CF1 mice; [5]) [%] | response vs control in vivo at 8 mg/kg (male CF1 mice; [6]) [%] | hypolipidemic activity (printed: hyperlipidemic) [1] | response vs control in vivo at 5 mg/kg (male CF1 mice; [4]) [%] | response vs control in vivo at 5 mg/kg (male CF1 mice; [5]) [%] | response vs control in vivo at 5 mg/kg (male CF1 mice; [6]) [%] | hypolipidemic activity (mice; 2.5 mg/kg in mice, Hall et al., J. Pharm. Sci. 73, 973-977 (1984)) | cholesterol excretion from the body (mice; Hall et al. 1984) | effect on ATP dependent citrate lyase [2] | effect on acetyl CoA synthetase (acetyl CoA synthetase) | effect on phosphatidate phosphohydrolase [3]
[BH3-][N+](C)(C)CCCCCCCC [II, N-octyl-N,N-dimethylamine borane] | 66 | 81 | 69 | 75 | 73 | 74 | – | – | – | – | – | – | – | – | –
[BH3-][N+](C)(C)CCCCCC [X, N-- -n-hexyl-N,N--dimethylamine borane] | 66 | 73 | 48 | 71 | 69 | 80 | – | – | – | – | – | – | – | – | –
C[N+](C)(C)[BH2-]C(=O)O [trimethylamine carboxyborane] | – | – | – | – | – | – | potent hyperlipidemic activity | – | – | – | – | – | – | – | –
[BH3-][N+](C)(C)CCCCCCCCCCCCC [V, N--tridecyl-N,N--dimethylamine borane] | 88 | 86 | 65 | 57 | 84 | 76 | – | – | – | – | – | – | – | – | –
[BH3-][N+](C)(C)CCCCCCCCCCCCCC [VII, N--tetradecyl-N,N--dimethylamine borane] | 79 | 80 | 60 | 102 | 67 | 80 | – | – | – | – | – | – | – | – | –
[BH3-][N+](C)(C)CCCCCCCCCCC [IV, N--undecyl-N,N--dimethylamine borane] | – | 82 | – | – | 68 | 75 | – | 68 | 63 | 82 | – | – | – | – | –
[BH3-][N+](C)(C)CCCCCCCCCCCCCCCC [VIII, N--hexadecyl-N,N--dimethylamine borane] | 74 | 79 | 62 | 72 | 59 | 41 | – | – | – | – | – | – | – | – | –
[BH3-][N+](C)(C)CCCCCCCCCC [XII, N--decyl-N,N--dimethylamine borane] | 51 | 77 | 46 | 76 | 77 | 79 | – | – | – | – | – | – | – | – | –
[BH3-][N+](C)(C)CCCCCCCCCCCCCCC [VI, N--pentadecyl-N,N--dimethylamine borane] | 86 | 81 | 64 | 70 | 66 | 77 | – | – | – | – | – | – | – | – | –
[BH3-][N+](C)(C)CCCC [XI, N-- -n-butyl-N,N--dimethylamine borane] | 72 | 88 | 62 | 68 | 64 | 72 | – | – | – | – | – | – | – | – | –
[BH3-][N+](C)(C)Cc1ccccc1 [XIII, N--benzyl-N,N--dimethylamine borane] | 95 | 73 | 71 | 60 | 65 | 53 | – | – | – | – | – | – | – | – | –
tetrakis-μ-(trimethylamine-borane carboxyato)-bis(trimethylamine-carboxyborane)-dicopper (II) | – | – | – | – | – | – | – | – | – | – | potent hypolipidemic agent | accelerate cholesterol excretion | lower | lower | lower
[BH3-][N+](C)(C)CCCCCCCCCCCC [IX, N--dodecyl-N,N--dimethylamine borane] | 103 | 75 | 97 | 90 | 74 | 94 | – | – | – | – | – | – | – | – | –
